± gives the standard deviation of the averaged measurements.
Assays:
Details in all cases: 72 h
U2OS [1] = assay: relative viability EC50 (midpoint between 100% and the lowest measured viability); higher = less toxic
Calu-3 [2] = assay: as above
Caco-2 [3] = assay: as above
Vero E6 [4] = assay: as above
HepG2 [5] = assay: as above
U2OS [6] = assay: cell viability relative to DMSO; higher = less toxic
Calu-3 [7] = assay: as above
Caco-2 [8] = assay: as above
Vero E6 [9] = assay: as above
HepG2 [10] = assay: as above
U2OS [11] = assay: drug sensitivity score (DSS) for viability; higher = more toxic; extreme values may be limits of the assay
Calu-3 [12] = assay: as above
Caco-2 [13] = assay: as above
Vero E6 [14] = assay: as above
HepG2 [15] = assay: as above

| SMILES | relative viability EC50 (U2OS [1]) | relative viability EC50 (Calu-3 [2]) | relative viability EC50 (Caco-2 [3]) | relative viability EC50 (Vero E6 [4]) | relative viability EC50 (HepG2 [5]) | cell viability (U2OS [6]; 1 nM) | cell viability (U2OS [6]; 10 nM) | cell viability (U2OS [6]; 100 nM) | cell viability (U2OS [6]; 1000 nM) | cell viability (U2OS [6]; 10000 nM) | cell viability (Calu-3 [7]; 1 nM) | cell viability (Calu-3 [7]; 10 nM) | cell viability (Calu-3 [7]; 100 nM) | cell viability (Calu-3 [7]; 1000 nM) | cell viability (Calu-3 [7]; 10000 nM) | cell viability (Caco-2 [8]; 1 nM) | cell viability (Caco-2 [8]; 10 nM) | cell viability (Caco-2 [8]; 100 nM) | cell viability (Caco-2 [8]; 1000 nM) | cell viability (Caco-2 [8]; 10000 nM) | cell viability (Vero E6 [9]; 1 nM) | cell viability (Vero E6 [9]; 10 nM) | cell viability (Vero E6 [9]; 100 nM) | cell viability (Vero E6 [9]; 1000 nM) | cell viability (Vero E6 [9]; 10000 nM) | cell viability (HepG2 [10]; 1 nM) | cell viability (HepG2 [10]; 10 nM) | cell viability (HepG2 [10]; 100 nM) | cell viability (HepG2 [10]; 1000 nM) | cell viability (HepG2 [10]; 10000 nM) | drug sensitivity score (U2OS [11]) | drug sensitivity score (Calu-3 [12]) | drug sensitivity score (Caco-2 [13]) | drug sensitivity score (Vero E6 [14]) | drug sensitivity score (HepG2 [15]) |
| --- | --- | --- | --- | --- | --- | --- | --- | --- | --- | --- | --- | --- | --- | --- | --- | --- | --- | --- | --- | --- | --- | --- | --- | --- | --- | --- | --- | --- | --- | --- | --- | --- | --- | --- | --- |
| COc1nc(C)cnc1NS(=O)(=O)c1cccnc1-c1ccc(-c2nnco2)cc1 [zibotentan] | > 10 µM | > 10 µM | > 10 µM | > 10 µM | > 10 µM | 95.7% | 99.4% | 97.7% | 103% | 105% | 105% | 102% | 98.9% | 104% | 111% | 104% | 95.2% | 94.9% | 101% | 94.9% | 102% | 96.5% | 94.4% | 99.3% | 102% | 99.8% | 98% | 102% | 101% | 107% | 0 | 0 | 0 | 0 | 0 |
| O=c1c(O)c(-c2ccc(O)c(O)c2)oc2cc(O)cc(O)c12 [quercetin] | > 10 µM | > 10 µM | > 10 µM | > 10 µM | > 10 µM | 99.1% | 97% | 98% | 97% | 96.1% | 98.8% | 100% | 92.4% | 92.8% | 80.5% | 104% | 93.6% | 100% | 87.6% | 79.5% | 99.3% | 99% | 95.9% | 101% | 99.3% | 94.1% | 95.8% | 99.2% | 99.1% | 84% | 0 | 0.8 | 1.9 | 0 | 0.4 |
| CC(=O)O[C@]1(C(C)=O)CC[C@H]2[C@@H]3C[C@H](C)C4=CC(=O)CC[C@]4(C)[C@H]3CC[C@@]21C [medroxyprogesterone-acetate] | > 10 µM | > 10 µM | > 10 µM | > 10 µM | > 10 µM | 97.1% | 99% | 97% | 96.2% | 96.5% | 99.8% | 106% | 95.6% | 101% | 103% | 92.6% | 103% | 94.5% | 101% | 95.8% | 96.6% | 97.9% | 100% | 98.3% | 98.2% | 110% | 103% | 99.1% | 95.1% | 97.3% | 0 | 0 | 0 | 0 | 0 |
| CC(CC(C(N)=O)(c1ccccc1)c1ccccc1)N(C)C (stereo unspecified) [aminopentamide] | > 10 µM | > 10 µM | > 10 µM | > 10 µM | > 10 µM | 95.8% | 94.9% | 101% | 101% | 101% | 110% | 97.8% | 104% | 92.2% | 98.9% | 95.3% | 90.2% | 97.1% | 92.8% | 98% | 95.9% | 96.1% | 91.5% | 98.3% | 104% | 100% | 99.6% | 95.2% | 103% | 104% | 0 | 0 | 0 | 0 | 0 |
| CC1(C)Oc2ccc(C#N)cc2[C@@H](OC2=CC(=O)CC2)[C@@H]1O [PCO-400] | > 10 µM | > 10 µM | > 10 µM | > 10 µM | > 10 µM | 107% | 95.8% | 98.8% | 90.6% | 99.8% | 96.6% | 95.9% | 110% | 102% | 103% | 113% | 90.5% | 99.6% | 92.8% | 103% | 102% | 97.3% | 97.7% | 102% | 94.6% | 101% | 97% | 109% | 105% | 86.9% | 0 | 0 | 0 | 0 | 0 |
| N=C(N)NC(=N)Nc1cccc(Cl)c1 [m-chlorophenylbiguanide] | > 10 µM | > 10 µM | > 10 µM | > 10 µM | > 10 µM | 94.3% | 98.9% | 103% | 95.9% | 101% | 108% | 94.7% | 106% | 98% | 116% | 101% | 92.2% | 100% | 101% | 97.1% | 100% | 101% | 95.9% | 101% | 96.9% | 112% | 106% | 102% | 105% | 99.2% | 0 | 0 | 0 | 0 | 0 |
| CCOc1cc(C(=O)N2CCC(N3CCN(C)CC3)CC2)ccc1Nc1ncc2c(n1)N(C1CCCC1)c1ccccc1C(=O)N2C [XMD17-109] | 2.01 µM | 3.09 µM | 1.48 µM | 1.21 µM | 1.45 µM | 99.6% | 95.6% | 101% | 89.5% | 28.4% | 104% | 87.2% | 99% | 99% | 4.4% | 96.1% | 104% | 99% | 81.6% | 32% | 94.3% | 97.1% | 94.4% | 62.1% | 8.8% | 101% | 105% | 94.2% | 76.9% | 25.2% | 5.7 | 5.5 | 6.5 | 9.5 | 7.2 |
| NCCCC[C@H](NC(=O)[C@@H](Cc1cc(Br)c(O)c(Br)c1)NC(=O)N1CCC(N2Cc3ccccc3NC2=O)CC1)C(=O)N1CCN(c2ccncc2)CC1 [BIBN4096] | > 10 µM | > 10 µM | > 10 µM | > 10 µM | > 10 µM | 95.8% | 98.5% | 94.8% | 84.5% | 91.6% | 93.7% | 96.9% | 100% | 110% | 105% | 88.6% | 97% | 101% | 90.3% | 100% | 102% | 97.2% | 98.6% | 99.1% | 104% | 102% | 97.2% | 92.4% | 97.5% | 102% | 0.3 | 0 | 0 | 0 | 0 |
| NC(=O)OCC(O)COc1ccc(Cl)cc1 (stereo unspecified) [chlorphensin-carbamate] | > 10 µM | > 10 µM | > 10 µM | > 10 µM | > 10 µM | 99.6% | 99% | 96.3% | 98.2% | 94.3% | 92.6% | 96.3% | 91.6% | 85.5% | 94.2% | 100% | 109% | 92% | 117% | 93.3% | 110% | 95.5% | 105% | 96.5% | 103% | 91.7% | 97% | 100% | 100% | 100% | 0 | 0 | 0 | 0 | 0 |
| CC1(C)CC(=O)C(C2C3=C(CC(C)(C)CC3=O)Oc3ccccc32)C(=O)C1 (stereo unspecified) | > 10 µM | > 10 µM | > 10 µM | > 10 µM | > 10 µM | 96.7% | 101% | 95% | 98.2% | 101% | 93% | 98.1% | 98% | 101% | 109% | 99.2% | 93.7% | 96.5% | 95.8% | 99.2% | 102% | 98% | 103% | 102% | 100% | 92.1% | 103% | 97.5% | 96.8% | 102% | 0 | 0 | 0 | 0 | 0 |
| C=C[C@H]1CN2CC[C@H]1C[C@H]2[C@H](O)c1ccnc2ccccc12 [cinchonidine] | > 10 µM | > 10 µM | > 10 µM | > 10 µM | > 10 µM | 98.35 ± 0.071% | 103 ± 2% | 97.85 ± 0.78% | 102 ± 1.2% | 99.5 ± 4.2% | 95.2 ± 1.6% | 102 ± 2.5% | 100 ± 4% | 98.7 ± 5% | 106 ± 5.8% | 94.8 ± 2.2% | 98.6 ± 0.42% | 99.8 ± 11% | 114 ± 16% | 116 ± 5.9% | 104 ± 4% | 105 ± 5.8% | 106 ± 0.21% | 95.55 ± 0.64% | 97.1 ± 1.7% | 104 ± 7.8% | 94.5 ± 1.2% | 97.05 ± 0.35% | 92 ± 0.42% | 94.2 ± 2.8% | 0 | 0 | 0 | 0 | 0 |
| CCCN(CCC)S(=O)(=O)c1ccc(C(=O)O)cc1 [probenecid] | > 10 µM | > 10 µM | > 10 µM | > 10 µM | > 10 µM | 97.5% | 97.5% | 95.2% | 99.1% | 95.9% | 88.3% | 106% | 102% | 118% | 91.3% | 95.8% | 97.6% | 88.8% | 104% | 93.3% | 102% | 104% | 103% | 99.3% | 99.6% | 105% | 91.6% | 97% | 95.4% | 109% | 0 | 0 | 0 | 0 | 0 |
| O[C@H]1[C@H](O)[C@@H](O)CN2CC[C@H](O)[C@H]12 [castanospermine] | – | > 10 µM | > 10 µM | > 10 µM | > 10 µM | – | – | – | – | – | 102% | 96.6% | 96.9% | 103% | 104% | 100% | 99% | 106% | 98.2% | 100% | 97.4% | 99.3% | 91% | 102% | 91.8% | 101% | 99.3% | 102% | 110% | 97.5% | – | 0 | 0 | 0 | 0 |
| CCOc1ccccc1-n1c(C(C)N2CCN(C(=O)COc3ccc(Cl)cc3)CC2)nc2ccccc2c1=O (stereo unspecified) [erastin] | – | 1.67 µM | 2.76 µM | 2.92 µM | 2.27 µM | – | – | – | – | – | 113% | 97.4% | 109% | 81.3% | 13.5% | 103% | 94.8% | 96.9% | 97.1% | 43.4% | 96% | 99.4% | 95.8% | 97.2% | 15.5% | 96.6% | 102% | 109% | 89.8% | 5.5% | – | 7.8 | 3.5 | 5.1 | 6.9 |

Reference: the supplement of paper PMC13380429
